Experimental data from PMC4850295, “Using a Genetically Encoded Sensor to Identify Inhibitors of Toxoplasma gondii Ca^2+ Signaling” (The Journal of Biological Chemistry, 2016).

These compounds were tested on T1, GCaMP5-expressing T. gondii. Conditions: 100 uM zaprinast stimulation; 10 min pretreatment; mean of two replicates; 0.23 h.
T1 construct: whole extracellular parasites expressing GCaMP5 Ca2+ sensor
Design: species or system GCaMP5-expressing Toxoplasma gondii, extracellular; GCaMP5 fluorescence (cytosolic Ca2+) after 100 uM zaprinast in compound-pretreated extracellular parasites, background-subtracted, relative to zaprinast alone
Procedure: GCaMP5-expressing parasites were suspended in Ringer's solution at 4 × 10^7 parasites/ml, and 50 μl of parasites were applied to each well of a 96-well plate (Costar, catalog no. 3631). […] Parasites were then treated with 100 μM zaprinast or 0.1% DMSO as a vehicle control and incubated at 37 °C with 5% CO2 for an additional 4 min before measuring fluorescence with excitation and emission wavelengths of 485 and 525 nm, respectively, on a SpectraMax M3 (Molecular Devices). Basal fluorescence, measured from untreated parasites, was subtracted from all values, and results were expressed as -fold change from parasites treated only with zaprinast. Z′ factors were determined from (i) parasites treated with zaprinast versus untreated parasites and (ii) parasites treated with a final concentration of 1 μM Cpd2 or a vehicle control followed by zaprinast, using the formula, Z′ = 1 − 3(σp + σn)/(|μp − μn|), where σp and σn indicate S.D. values of positive and negative controls, and μp and μn indicate the means of positive and negative controls, respectively. […] We predicted that the zaprinast response measured in GCaMP5-expressing parasites could form the basis for a phenotypic screen. Such a screen would benefit from the known importance of Ca^2+ signaling in parasite biology along with the reported success rate of cell-based phenotypic assays. We designed a screen wherein extracellular GCaMP5-expressing parasites were pretreated with compounds for 10 min before stimulation with zaprinast, and parasite fluorescence was measured 4 min later. We expected that compounds that interfered with the zaprinast response would reduce fluorescence. We calculated a Z′-factor for this screen to determine its dynamic range and suitability to high throughput screening. To do so, we compared zaprinast-treated parasites to untreated parasites or those pretreated with the PKG inhibitor Compound 2 (Cpd2) ([55]). […] We obtained the compound libraries published kinase inhibitor sets PKIS1 ([57]) and PKIS2 (unpublished), from GlaxoSmithKline and applied our phenotypic screen to the 823 ATP mimetics represented in these collections (Fig. 2B and supplemental Table S1). The compounds were screened at a single 10 μM dose with two biological replicates.

First: NS(=O)(=O)c1cccc(-c2cc3ccncc3cc2OCc2ccccc2)c1 [GSK980961A]
Second: NCC(NC(=O)c1cc(-c2cccnc2)c(-c2ccnc3[nH]ccc23)s1)c1ccccc1 (stereo not shown) [GSK1323434A]
The “fold change in fluorescence relative to zaprinast alone” value of the first is lower: 0.9595 for the first, 0.997 for the second.

Compared with `Cc1cccc(Nc2nc(N[C@H]3CCCC[C@H]3N)ncc2C(N)=O)c1` [GSK986310C], `Cc1cccc(Nc2nc(NCCN)ncc2C(N)=O)c1` [GSK1292139B] is lower in “fold change in fluorescence relative to zaprinast alone” value: 1.388 for the first, 0.903 for the second.

First: CS(=O)(=O)Nc1ccc(-c2ccnc3[nH]ccc23)cc1 [GSK993273A]
Second: NCC(NC(=O)c1cc(-c2ccnc3[nH]ccc23)cs1)c1ccccc1 (stereo not shown) [GSK1229959A]
The “fold change in fluorescence relative to zaprinast alone” value of the first is higher: 1.181 for the first, 0.7412 for the second.

Compared with `CCCN1CCC=C(c2ccc(Nc3nc(Nc4ccccc4C(N)=O)c4cc[nH]c4n3)c(C)c2)C1` [GSK994854A], `CCCN1CCCC(c2ccc(Nc3nc(Nc4cc(F)ccc4C(N)=O)c4cc[nH]c4n3)c(OC)c2)C1` (stereo not shown) [GSK1173862A] is higher in “fold change in fluorescence relative to zaprinast alone” value: 1.737 for the first, 1.98 for the second.

Compared with `CCn1c(-c2nonc2N)nc2c(C#CC(C)(C)O)nc(CN3CCCC3)cc21` [GSK1000163A], `CCn1c(-c2nonc2N)nc2c(C#CC(C)(C)O)nc(O[C@@H](CN)c3ccccc3)cc21` [GSK1007102B] is higher in “fold change in fluorescence relative to zaprinast alone” value: 1.153 for the first, 1.188 for the second.

First: Cc1ccc(NC(=O)Nc2cc(C(C)(C)C)nn2-c2ccccc2)cc1 [GSK1014915A]
Second: COc1ccc(Nc2nccc(N3CCC(NC(=O)Nc4cc(C)ccc4C)C3)n2)cc1 (stereo not shown) [GSK1379741A]
The “fold change in fluorescence relative to zaprinast alone” value of the first is lower: 0.9452 for the first, 1.033 for the second.

First: NC(=O)c1sc(-n2cnc3ccccc32)cc1OCc1ccccc1Br [GSK1023156A]
Second: COc1cc2ncn(-c3cc(OCc4ccccc4C(F)(F)F)c(C(C)=O)s3)c2cc1OC [GSK1030059A]
The “fold change in fluorescence relative to zaprinast alone” value of the first is lower: 0.8843 for the first, 1.158 for the second.

First: COC(=O)c1sc(-n2cnc3cc(OC)c(OC)cc32)cc1OCc1ccccc1C(F)(F)F [GSK1030058A]
Second: CNC(=O)c1sc(-n2cnc3cc(OC)c(OC)cc32)cc1OCc1ccccc1C(F)(F)F [GSK1030061A]
The “fold change in fluorescence relative to zaprinast alone” value of the first is lower: 0.7743 for the first, 1.028 for the second.

First: COc1cc2ncn(-c3cc(OCc4ccccc4C(F)(F)F)c(C(=O)N(C)C)s3)c2cc1OC [GSK1030062A]
Second: COc1cc(Nc2nccc(N3CCC(NC(=O)c4cc5ccccc5s4)C3)n2)cc(OC)c1OC (stereo not shown) [GSK1379760A]
The “fold change in fluorescence relative to zaprinast alone” value of the first is lower: 0.999 for the first, 1.279 for the second.

Going from `O=c1[nH]cc(-c2ccc(O)cc2)c2sc(-c3ccncc3)cc12` [GSK1033723A] to `NC(CNC(=O)c1cc(Br)c(-c2ccnc3[nH]ccc23)s1)c1ccccc1` (stereo not shown) [GSK1322949A], the “fold change in fluorescence relative to zaprinast alone” value falls from 1.385 to 0.4024.

Going from `Nc1nccc(-c2ccc3c(N)n[nH]c3c2)n1` [GSK1034945A] to `COc1ccc(Nc2nccc(-c3ccc(NC(=O)c4cc5cc(F)ccc5[nH]4)cc3)n2)cc1` [GSK1229496A], the “fold change in fluorescence relative to zaprinast alone” value rises from 1.107 to 1.727.

Going from `COc1cc(N2CCN(C(C)C)CC2)ccc1Nc1nc(Nc2ccc(F)cc2C(N)=O)c2cc[nH]c2n1` [GSK1220512A] to `CCCN1CCC(c2ccc(Nc3nc(Nc4cc(F)ccc4C(N)=O)c4cc[nH]c4n3)c(OC)c2)CC1` [GSK1326255A], the “fold change in fluorescence relative to zaprinast alone” value rises from 1.812 to 1.826.

First: NCC(C(=O)Nc1cc(Br)c(-c2ccnc3[nH]ccc23)s1)c1ccccc1 (stereo not shown) [GSK1269851A]
Second: NCCC(NC(=O)c1cc(Br)c(-c2ccnc3[nH]ccc23)s1)c1ccccc1 (stereo not shown) [GSK1307810A]
The “fold change in fluorescence relative to zaprinast alone” value of the first is lower: 0.2436 for the first, 0.5195 for the second.

First: NCCCC(NC(=O)c1cc(Br)c(-c2ccnc3[nH]ccc23)s1)c1ccccc1 (stereo not shown) [GSK1287544A]
Second: NCC(NC(=O)c1cc(-c2cn[nH]c2)c(-c2ccnc3[nH]ccc23)s1)c1ccccc1 (stereo not shown) [GSK1325775A]
The “fold change in fluorescence relative to zaprinast alone” value of the first is lower: 0.7469 for the first, 1.276 for the second.

First: NCC(NCc1ccc(-c2ccnc3[nH]ccc23)s1)c1ccccc1 (stereo not shown) [GSK1321565A]
Second: O=C(NC1CCN(c2ccnc(Nc3ccc(F)cc3)n2)C1)c1cc2ccccc2s1 (stereo not shown) [GSK1379716A]
The “fold change in fluorescence relative to zaprinast alone” value of the first is lower: 0.4604 for the first, 1.103 for the second.

Compared with `O=C(Nc1c(F)cccc1F)c1cc(C(=O)c2ccccc2F)c[nH]1` [GSK1326180A], `O=C(Nc1ccccc1F)NC1CCN(c2ccnc(Nc3ccc(F)cc3)n2)C1` (stereo not shown) [GSK1379722A] is lower in “fold change in fluorescence relative to zaprinast alone” value: 0.8808 for the first, 0.7204 for the second.

Going from `COc1ccc(CNC(=O)NC2CCN(c3ccnc(Nc4ccc(F)cc4)n3)C2)cc1` (stereo not shown) [GSK1379706A] to `COc1ccc(CNC(=O)NC2CCN(c3ccnc(Nc4ccc(OC)cc4)n3)C2)cc1` (stereo not shown) [GSK1379727A], the “fold change in fluorescence relative to zaprinast alone” value rises from 0.6471 to 1.253.

First: N#Cc1cccc(C(=O)NC2CCN(c3ccnc(Nc4ccc(F)cc4)n3)C2)c1 (stereo not shown) [GSK1379708A]
Second: COc1ccc(Nc2nccc(N3CCC(NC(=O)c4cccc(C#N)c4)C3)n2)cc1 (stereo not shown) [GSK1379730A]
The “fold change in fluorescence relative to zaprinast alone” value of the first is higher: 1.095 for the first, 0.96 for the second.

First: CC(C(=O)NC1CCN(c2ccnc(Nc3ccc(F)cc3)n2)C1)c1ccc(Cl)cc1 (stereo not shown) [GSK1379713A]
Second: COc1ccc(Nc2nccc(N3CCC(NC(=O)C(C)c4ccc(Cl)cc4)C3)n2)cc1 (stereo not shown) [GSK1379735A]
The “fold change in fluorescence relative to zaprinast alone” value of the first is higher: 0.7096 for the first, 0.6825 for the second.

First: COC(=O)C(Cc1ccccc1)NC(=O)NC1CCN(c2ccnc(Nc3ccc(F)cc3)n2)C1 (stereo not shown) [GSK1379714A]
Second: COC(=O)c1cccc(NC(=O)NC2CCN(c3ccnc(Nc4ccc(F)cc4)n3)C2)c1 (stereo not shown) [GSK1379725A]
The “fold change in fluorescence relative to zaprinast alone” value of the first is higher: 0.7659 for the first, 0.2001 for the second.

Going from `CCCc1ccc(S(=O)(=O)NC2CCN(c3ccnc(Nc4ccc(F)cc4)n3)C2)cc1` (stereo not shown) [GSK1379715A] to `CCCc1ccc(S(=O)(=O)NC2CCN(c3ccnc(Nc4ccc(OC)cc4)n3)C2)cc1` (stereo not shown) [GSK1379737A], the “fold change in fluorescence relative to zaprinast alone” value rises from 0.5743 to 0.6293.

Compared with `Cn1cncc1C(=O)NC1CCN(c2ccnc(Nc3ccc(F)cc3)n2)C1` (stereo not shown) [GSK1379717A], `Cc1ccc(C)c(NC(=O)NC2CCN(c3ccnc(Nc4ccc(F)cc4)n3)C2)c1` (stereo not shown) [GSK1379720A] is higher in “fold change in fluorescence relative to zaprinast alone” value: 1.089 for the first, 1.268 for the second.

First: COc1cccc(NC(=O)NC2CCN(c3ccnc(Nc4ccc(F)cc4)n3)C2)c1 (stereo not shown) [GSK1379721A]
Second: COc1ccc(Nc2nccc(N3CCC(NC(=O)Nc4cccc(OC)c4)C3)n2)cc1 (stereo not shown) [GSK1379742A]
The “fold change in fluorescence relative to zaprinast alone” value of the first is lower: 0.358 for the first, 1.221 for the second.

Going from `COc1cccc(CNC(=O)NC2CCN(c3ccnc(Nc4ccc(F)cc4)n3)C2)c1` (stereo not shown) [GSK1379723A] to `COc1ccc(Nc2nccc(N3CCC(NC(=O)Nc4cccc(C(C)=O)c4)C3)n2)cc1` (stereo not shown) [GSK1379731A], the “fold change in fluorescence relative to zaprinast alone” value rises from 0.5252 to 0.6491.

Compared with `O=C(Nc1ccc2c(c1)OCO2)NC1CCN(c2ccnc(Nc3ccc(F)cc3)n2)C1` (stereo not shown) [GSK1379724A], `COc1ccc(Nc2nccc(N3CCC(NC(=O)Nc4ccc5c(c4)OCO5)C3)n2)cc1` (stereo not shown) [GSK1379745A] is higher in “fold change in fluorescence relative to zaprinast alone” value: 0.9401 for the first, 1.223 for the second.

Going from `COc1ccc(Nc2nccc(N3CCC(NS(=O)(=O)c4ccc(NC(C)=O)cc4)C3)n2)cc1` (stereo not shown) [GSK1379729A] to `COc1ccc(Nc2nccc(N3CCC(NC(=O)c4cccc(NC(C)=O)c4)C3)n2)cc1` (stereo not shown) [GSK1379732A], the “fold change in fluorescence relative to zaprinast alone” value falls from 1.531 to 1.077.

First: COc1ccc(Nc2nccc(N3CCC(NC(=O)c4cc5ccccc5s4)C3)n2)cc1 (stereo not shown) [GSK1379738A]
Second: COC(=O)c1cccc(NC(=O)NC2CCN(c3ccnc(Nc4ccc(OC)cc4)n3)C2)c1 (stereo not shown) [GSK1379746A]
The “fold change in fluorescence relative to zaprinast alone” value of the first is lower: 0.9419 for the first, 1.123 for the second.

Compared with `COc1cc(Nc2nccc(N3CCC(NC(=O)c4cccc(C#N)c4)C3)n2)cc(OC)c1OC` (stereo not shown) [GSK1379751A], `COc1cc(Nc2nccc(N3CCC(NC(=O)c4cccc(NC(C)=O)c4)C3)n2)cc(OC)c1OC` (stereo not shown) [GSK1379754A] is lower in “fold change in fluorescence relative to zaprinast alone” value: 1.563 for the first, 1.271 for the second.

Going from `COc1cc(Nc2nccc(N3CCC(NC(=O)Nc4cccc(C(C)=O)c4)C3)n2)cc(OC)c1OC` (stereo not shown) [GSK1379753A] to `COc1cccc(NC(=O)NC2CCN(c3ccnc(Nc4cc(OC)c(OC)c(OC)c4)n3)C2)c1` (stereo not shown) [GSK1379763A], the “fold change in fluorescence relative to zaprinast alone” value falls from 1.391 to 1.269.
